{
  "source": "patent US20250000829A1",
  "about": "“PHENYLBUTYRATE COMPOSITIONS FOR TREATING DEVELOPMENTAL AND EPILEPTIC ENCEPHALOPATHY (“DEE”), AND STXBP1 DISORDERS” (priority 2023, published 2025)",
  "key": {"[1]": {"settings": "based on Lexicomp; cited from earlier work"}, "[2]": {"system": "children with STXBP1-E and SLC6A1-NDD", "test": "Open-label pilot study: communication assessed with the ORCA", "format": "in vivo, human", "settings": "assessed at 10 weeks of drug exposure", "description": "(§1) After institutional review board approval, 20 participants were enrolled in a single treatment group, multiple-dose, open-label, pilot study to evaluate the safety, tolerability, pharmacokinetics (PK) and pharmacodynamics (PD) of glycerol phenylbutyrate in children with STXBP1-E and SLC6A1-NDD.\nDevelopment was assessed using several pre-specified measures (Vineland, ORCA) as well as an assessment by a pediatric development expert (i.e. a physician, neuropsychologist, or psychologist with expertise in administering and interpreting developmental assessments). During the assessment, several additional validated measures may have been used. These may have included (but were not limited to) the Bayley Scales of Infant and Toddler Development, the Childhood Autism Rating Scale, the Child Behavior Checklist, the Behavior Rating Inventory of Executive Function, the Infant Toddler Social Emotional Assessment, the DAYC (Developmental Assessment of Young Children), or other similar validated scales. […]\n(§2) Visit 14 was a treatment evaluation visit and was conducted in person at least 40 days after the first day of medication administration. […] The participant was evaluated by a developmental pediatrician, neuropsychologist, or psychologist, in the same fashion as during visit 5.\n(§3) Response to the medication was measured qualitatively and quantitatively using the following measures. […]"}, "[3]": {"settings": "cited from earlier work"}, "[4]": {"settings": "mice; via the monocarboxylate transporter 1 mechanism; cited from earlier work"}, "[5]": {"test": "Blood/plasma and CSF levels of phenylbutyrate after glycerol phenylbutyrate dosing", "format": "in vivo, human", "settings": "doses of 12 g/m^2/day, extrapolated from 3 g/m^2/day", "description": "Dosing was sufficient to lead to therapeutic concentrations in the range of 0.25 mM to 1 mM in serum and CSF, based on the following observations. […] CSF levels are approximately ½ to ¼ of serum levels, based on data from non-human primates, thus CSF levels of 0.25 to 0.5 mM were assumed.\nThe secondary endpoints were measuring plasma concentration of phenylbutyrate and active metabolites. Plasma levels of phenylbutyrate peaked at 2 hours after an oral dose. Thus investigators aimed to obtain levels within 90-150 minutes after the oral dose."}, "[6]": {"system": "children with STXBP1-E and SLC6A1-NDD", "test": "Open-label pilot study: quality of life assessed with the PEDSQL epilepsy module", "format": "in vivo, human", "settings": "assessed at 10 weeks of drug exposure", "description": "as §1\nQuality of life was assessed using the Pediatric Quality of Life Inventory (PEDSQL) epilepsy module, which is a validated scale about quality of life for children with epilepsy, and the Pediatric Epilepsy Learning Healthcare System Quality of Life survey (PELHS QOL 2), which is a set of two questions that ask how seizures and medication side effects alter usual routines. The PEDSQL is provided at eprovide.mapi-trust.org/instruments/pediatric-quality-of-life-inventory-epilepsy-module.\n(§4) Visit 5 was a pre-treatment baseline visit conducted at least 28 days after visit 1 and the day before treatment initiation. This visit was conducted in person while the patient was admitted to hospital. […]\nas §2, §3"}, "[7]": {"system": "children with STXBP1-E and SLC6A1-NDD", "test": "Open-label pilot study: sleep assessed with the Child's Sleep Habits Questionnaire (CSHQ)", "format": "in vivo, human", "settings": "assessed at 10 weeks of drug exposure", "description": "as §1\nas §4, with “hospital. During this visit, the investigator reviewed the participant's seizure diary and medical history.” for “hospital.”\nas §2\nResponse to the medication was measured qualitatively and quantitatively using the following measures. […] Additional measures comparing visit 5 and visit 14 included quality of life assessment, as quantified by the change in PEDSQL epilepsy module score, and by the trajectory and overall change in the PELHS QOL-2 score; qualitative analysis of the participant's development and behavior; change in developmental assessment scores; ataxia as measured by changes in SARA scale score; and sleep as measured by CSHQ score. […]"}, "child with SLC6A1": {"system": "child with SLC6A1", "test": "Open-label pilot study: EEG before and after treatment", "format": "in vivo, human", "settings": "10 second EEG, same child with SLC6A1, six weeks after treatment vs prior to treatment (brief absence seizure)", "description": "Investigators noted EEG changes, including standard clinical interpretation of the EEG and video (particularly for abnormal movements).\nVisit 5 was a pre-treatment baseline visit conducted at least 28 days after visit 1 and the day before treatment initiation. This visit was conducted in person while the patient was admitted to hospital. During this visit, the investigator reviewed the participant's seizure diary and medical history. The investigator administered several assessments, including the PEDSQL Epilepsy Module, the PELHS QOL 2, the SARA Scale, the CARS, the CSHQ, and the ORCA. The participant was given a physical exam and had urine and blood samples collected for a series of laboratory tests. Laboratory tests included routine laboratory tests and specialized laboratory tests. Routine laboratory tests that were conducted included a complete blood count (CBC), chemistry panels, liver function tests (LFTs), urinalysis, amylase test, lipase test, anti-seizure medication (ASM) levels test, and electrocardiogram (EKG). […]\nVisit 14 was a treatment evaluation visit and was conducted in person at least 40 days after the first day of medication administration. […] The participant was evaluated by a developmental pediatrician, neuropsychologist, or psychologist, in the same fashion as during visit 5. […]"}, "[8]": {"system": "children with STXBP1-E and SLC6A1-NDD", "test": "Open-label pilot study of glycerol phenylbutyrate: seizure response (seizure diary)", "format": "in vivo, human", "settings": "of 20 participants", "source_text": "as §1\nParticipants in the study were patients aged 2 months to 17 years with STXBP1-E and seizures or with SLC6A1-NDD. People with SLC6A1 typically experience seizures later in life (typically middle of 1st decade) and so seizures were not an entry criterion for participants with SLC6A1. During enrollment preference was given to patients between 2 months and 3 years old (target of 5 patients) and patients between 4 and 10 years old (target 5 patients). This is because younger patients up to 3 years old may be more sensitive to possible pharmacodynamics and efficacy endpoints and, to a lesser extent, the same may be true for patients 4 to 10 years, as compared to older patients. The study enrolled 11 patients, including 4 children between 2 months and 2 years.\nA daily dose of 11.2 mL/m^2, equivalent to 12.4 g/m^2, was given, enterally (by mouth or, if necessary, by nasogastric or gastrostomy tube). The daily dose was divided into three equally divided doses, with each dose given with food.\nFIG. 3 is a schedule of assessments for measuring the effectiveness of glycerol phenylbutyrate to treat patients with STXBP1-E and SLC6A1-NDD. […]\nResponse to the medication was measured qualitatively and quantitatively using the following measures. Quantitative and qualitative measures included the change in the number of and percent change in the seizures per week, as recorded in the seizure diary, comparing weeks 1-4 with weeks 5-10; change and percent change in number of seizures per hour, as recorded by video EEG, comparing visit 5 (day before medication) to visit 6 (first day of medication), and comparing visit 5 to visit 14 (40 days after the first day of medication); and changes in […] in EEG data, comparing visit 5 to visit 6 and visit 5 to visit 14. Additional measures comparing visit 5 and visit 14 included quality of life assessment, as quantified by the change in PEDSQL epilepsy module score, and by the trajectory and overall change in the PELHS QOL-2 score; qualitative analysis of the participant's development and behavior; change in developmental assessment scores; ataxia as measured by changes in SARA scale score; and sleep as measured by CSHQ score. Medication dosing adherence was also assessed, quantified as the percentage of days in which the participant received the full prescribed dose, and considering obstacles to adherence qualitatively as reported by caregivers. […]"}, "[9]": {"settings": "non-human primates; via the monocarboxylate transporter 1 mechanism; cited from earlier work"}, "[10]": {"settings": "daily dose 11.2 mL/m^2 enterally"}},
  "note": "Values joined by “and” are separate entries in the source; they are usually repeats but may differ in a detail not shown here. Identical values can stand only once. Like-named read-outs stand apart in the source and are kept apart here.",
  "data": [
    {"compound": "O=C(CCCc1ccccc1)OCC(COC(=O)CCCc1ccccc1)OC(=O)CCCc1ccccc1", "note": "[glycerol phenylbutyrate]", "values": [
      {"measurement": "Side effect frequency: abdominal pain", "setting": "[1]", "result": 7, "unit": "%"},
      {"measurement": "Side effect frequency: decreased appetite", "setting": "[1]", "result": 7, "unit": "%"},
      {"measurement": "Side effect frequency: diarrhea", "setting": "[1]", "result": 16, "unit": "%"},
      {"measurement": "Side effect frequency: dyspepsia", "setting": "[1]", "result": 5, "unit": "%"},
      {"measurement": "Side effect frequency: fatigue", "setting": "[1]", "result": 7, "unit": "%"},
      {"measurement": "Side effect frequency: flatulence", "setting": "[1]", "result": 14, "unit": "%"},
      {"measurement": "Side effect frequency: headache", "setting": "[1]", "result": 14, "unit": "%"},
      {"measurement": "Side effect frequency: nausea", "setting": "[1]", "result": 2, "unit": "%"},
      {"measurement": "Side effect frequency: vomiting", "setting": "[1]", "result": 7, "unit": "%"},
      {"measurement": "Participants with improved communication, as assessed with the ORCA", "setting": "[2]", "result": "8 of 11"},
      {"measurement": "Blood levels of phenylbutyric acid", "setting": "[3]; doses of 3 g/m^2/day of glycerol phenylbutyrate, adults", "result": "38 μg/mL and 0.23 mM"},
      {"measurement": "Crossing of the blood-brain barrier", "setting": "[4]", "result": "crosses the blood-brain barrier"},
      {"measurement": "Concentration in serum", "setting": "[5]", "result": "~1000", "unit": "µM"},
      {"measurement": "Participants with improved quality of life, as assessed with the PEDSQL", "setting": "[6]", "result": "4 of 11"},
      {"measurement": "Participants with improved sleep, as assessed with the CSHQ", "setting": "[7]", "result": "5 of 12"},
      {"measurement": "Seizure activity in EEG after treatment", "setting": "child with SLC6A1", "result": "did not show seizure activity"},
      {"measurement": "Responders (50% or more reduction in seizures clinically associated with the use of glycerol phenylbutyrate)", "setting": "[8]; daily dose 11.2 mL/m^2 (12.4 g/m^2) enterally in three divided doses", "result": 11, "unit": "participants"},
      {"measurement": "Indeterminant response (improvement, but less than 50% reduction in seizures or not clinically associated with use)", "setting": "[8]; [10]", "result": 3, "unit": "participants"},
      {"measurement": "Non-responders", "setting": "[8]; [10]", "result": 2, "unit": "participants"},
      {"measurement": "Participants that had no seizures", "setting": "[8]; [10]", "result": 4, "unit": "participants"},
      {"measurement": "Crossing of the blood-brain barrier", "setting": "[9]", "result": "crosses the blood-brain barrier"}
    ]},
    {"compound": "phenylbutyric acid [phenylbutyrate]", "values": [
      {"measurement": "Time of peak plasma levels of phenylbutyrate", "setting": "[3]; after an oral dose", "result": 2, "unit": "h"}
    ]}
  ]
}
